Measured values reported in article PMC8125408, “Polyoxazolines with a Vicinally Double-Bioactivated Terminus for Biomacromolecular Affinity Assessment” (Sensors (Basel, Switzerland), 2021).
Where two headings read alike, the source gives them in different places.

Legend:
Concanavalin A (ConA) [1] = molecular target: T1, Concanavalin A (ConA) (Canavalia ensiformis, UniProt P02866); conditions: PBS, 25 °C, four ConA concentrations 118 to […], no aff. = no affinity of the conjugate to the lectin could be determined
Method: SAW measurements were performed with apparatus from SAW Instruments GmbH, which included an autosampler and allowed for measuring of protein adsorption and KD value determination. Measurements were performed at 25 °C using PBS as a running buffer. For the immobilization of polymers containing a thioether group on the bare gold sensor chip surface 30 µL of polymers per lane (concentration: 10 µg·mL^−1 in PBS) were preincubated onto the sensor chip for 1 h with an external application mask. Remaining unspecific protein binding sites on the bare gold surface were saturated by the injection of 500 µM BSA. Purified recombinant ConA was used as an analyte at four concentrations, ranging from 118 to 944 nM. The flow rate for the acquisition of interaction data was set to 40 µL·min^−1 in all experiments. Association was measured for 300 s, then dissociation was initiated by perfusing the running buffer, and the dissociation phase was also monitored for 300 s. Regeneration of the chip surface was performed by injection of two 60 s pulses of 100 mM glycine (pH 2.5) at a flow rate of 100 µL·min^−1. Interaction data were analyzed using the FitMaster add-in (SAW Instruments GmbH) of Origin software version 8.5 (OriginLab Corporation), applying a simple Langmuir-type 1:1 interaction model. Association rate constant kon values and dissociation rates constant koff values were obtained by fitting data of individual experiments. Equilibrium binding KD values were deduced using the equation KD = koff/kon. […]
Following the preparation of the gold surface with the polymer conjugates and saturation with BSA, the main measurement can be performed by analyzing the binding affinity of the lectin to the functionalized surface. For this, a constant flow of a series of ConA dilutions with defined concentrations of ConA is injected on each channel and the phase change of surface acoustic waves, which are influenced by binding events, is monitored. […] After measuring four different ConA concentrations, the binding and dissociation curves are fitted and the KD value is calculated.

Concanavalin A (ConA) [2] = molecular target: T1, Concanavalin A (ConA); conditions: HBS150T pH 7.4, 25 °C, ConA 118 to […], no aff. = no affinity could be determined
Method: Interactions between polymers and Concanavalin A (ConA) were measured by SPR using a […] ®4SPR system (Reichert Technologies). Measurements were performed at 25 °C using HBS150T (10 mM HEPES (pH 7.4), 150 mM NaCl, 3.4 mM EDTA, 0.005% (v/v) Tween 20) as running buffer. For the immobilization of polymers containing a thioether group on the bare gold sensor chip surface, the polymers were injected onto a sensor for 8 min at a flow rate of 10 µL/min to cause polymer coating to a final density of 1000 resonance units. Remaining unspecific protein binding sites on the bare gold surface were saturated by the injection of 500 µM BSA. Purified recombinant ConA was used as an analyte at four concentrations, ranging from 118 to 944 nM. The flowrate for the acquisition of interaction data was set to 25 µL·min^−1 in all experiments. Association was measured for 180 s, then dissociation was initiated by perfusing running buffer, and the dissociation phase was monitored for 300 s. Regeneration of the chip surface was performed by injecting two 60 s pulses of 100 mM glycine (pH 2.5) at a flow rate of 100 µL·min^−1. Interaction data were analyzed using the software TraceDrawer version 1.8.1 (Ridgeview Instruments AB, Uppsala, Sweden), applying a simple Langmuir-type 1:1 interaction model and using global fitting for the rate constants. Association rate constant kon values and dissociation rates constant koff values were obtained by fitting the data of individual experiments. Equilibrium binding KD values were deduced using the equation KD = koff/kon. All SPR experiments were performed in at least three independent experiments.
Preparing the samples is identical to SAW measurements. The SPR measuring channels were coated with polymer solution, and unoccupied gold surface was saturated with BSA.

CGGWYKYW-PMeOx20-SEt
no aff.: SAW KD (Concanavalin A (ConA) [1]; Lane 1) | SAW KD (Concanavalin A (ConA) [1]; Lane 2) | SAW KD (Concanavalin A (ConA) [1]; Lane 3) | SPR KD (Concanavalin A (ConA) [2]; Lane 1 (for III: repeat (1))) | SPR KD (Concanavalin A (ConA) [2]; Lane 2 (for III: repeat (1))) | SPR KD (Concanavalin A (ConA) [2]; Lane 3 (for III: repeat (1))) | SPR KD (Concanavalin A (ConA) [2]; Lane 4 (for III: repeat (1)))
